Consider 14 compounds from US4760081A, “1,6-naphthyridine derivatives useful for treating diseases of the blood vessels” (Goedecke Aktiengesellschaft, priority 1984, dated 1988).

One assay concerns arteria basilaris. The assay is described as follows: Isolated smooth muscle: inhibition of K+ depolarization contraction of blood vessel rings in an organ bath, A. basilaris. The assay is classed as cell-based. The settings on record: rabbit, average diameter 0.5-1.0 mm, read-out: IC50, semi-maximum inhibition of the K+ depolarization contraction of blood vessel rings, A. bas. The source says: (§1) Isolated smooth muscle from rabbits (blood vessel rings, A. basilaris, A. coronaria, A. saphena) are fixed in an organ bath in such a manner that isometric contractions can be measured. The contraction is initiated by a potassium depolarization in tyrode solution.

A further assay deals with arteria coronaria. Nature of the assay: Isolated smooth muscle: inhibition of K+ depolarization contraction of blood vessel rings in an organ bath, A. coronaria. The class given is cell-based. As to conditions: rabbit, average diameter 0.5-1.0 mm, read-out: IC50, semi-maximum inhibition of the K+ depolarization contraction of blood vessel rings, A. cor.
Description: as §1

Assay [1] deals with isolated papillary muscle of the guinea pig. The assay is described as follows: Isolated papillary muscle: isometric contraction under field stimulation. The settings on record: for IC50: read-out: IC50 /100 (IC = inhibition concentration, IC100 corresponds to maximum action) (converted). The class given is cell-based. The source says:
However, it cannot be excluded that the dimethyl sulfoxide used as a solvent has contributed to the observed positive inotropic action.

A further assay relates to arteria saphena. Nature of the assay: Isolated smooth muscle: inhibition of K+ depolarization contraction of blood vessel rings in an organ bath, A. saphena. The class given is cell-based. As to conditions: rabbit, average diameter 0.5-1.0 mm, read-out: IC50, semi-maximum inhibition of the K+ depolarization contraction of blood vessel rings, A. saph.
Description: as §1

In assay [2] the test system is papillary muscle of the rabbit. As to conditions: Hof and Scholtysik, cited from earlier work.
Where [3] appears, read: Cavia porcellus, papillary muscle of guinea pig, 250/min, 10 msec, 10-20 V field stimulation.

pIC50: −log10 of the molar value. Where a name gives a salt, the structure may show the parent alone. Read-outs that look alike come from different tables or passages of the source.

Take `CCOC(=O)C1=C(C)Nc2ccnc(OC(C)CC)c2C1c1ccccc1C(F)(F)F` (racemic) [Example 1p, ethyl (±)-5-sec-butoxy-1,4-dihydro-2-methyl-4-(2-trifluoromethylphenyl)-1,6-napthyridine-3-carboxylate hydrochloride]: the pIC50 is 7.80 in the assay with arteria basilaris (Oryctolagus cuniculus) and 7.28 in the assay with arteria coronaria (Oryctolagus cuniculus). The IC50 in assay [1] (setting [3]) was 10 µM.

In the case of `COC(=O)C1=C(C)Nc2ccnc(OC(C)C)c2C1c1ccccc1` (racemic) [Example 1c, methyl (±)-1,4-dihydro-5-isopropoxy-2-methyl-4-phenyl-1,6-naphthyridine-3-carboxylate], the values for the pIC50 with arteria basilaris (Oryctolagus cuniculus), in the assay on arteria coronaria (Oryctolagus cuniculus) and in the assay with arteria saphena (Oryctolagus cuniculus) were 7.82, 7.19 and 6.00, respectively. The activation at 0.3 µM in assay [1] (Cavia porcellus, 3×10^-7 mol/liter, read-out: maximum increase of the contractility) was found to be 36%. In assay [1] (Cavia porcellus, 4×10^-9 mol/liter, read-out: increase of the contractility), the activation at 0.004 µM worked out at 18%.

In the case of `CCOC(=O)C1=C(C)Nc2ccnc(OCC(C)C)c2C1c1ccccc1C(F)(F)F` (racemic) [Example 1q, ethyl (±)-1,4-dihydro-5-isobutoxy-2-methyl-4-(2-trifluoromethylphenyl)-1,6-naphthyridine-3-carboxylate], the pIC50 was 7.46 in the assay on arteria basilaris (Oryctolagus cuniculus) and 6.72 in the assay with arteria coronaria (Oryctolagus cuniculus). In addition, the IC50 in assay [1] (setting [3]) was 10 µM.

In the case of `CCOC(=O)C1=C(C)Nc2ccnc(OC(C)C)c2C1c1ccccc1C(F)(F)F` (racemic) [Example 1l, ethyl (±)-1,4-dihydro-5-isopropoxy-2-methyl-4-(2-trifluoromethylphenyl)-1,6-naphthyridine-3-carboxylate], the results for the pIC50 in the assay with arteria basilaris (Oryctolagus cuniculus), in the assay with arteria coronaria (Oryctolagus cuniculus) and in the assay with arteria saphena (Oryctolagus cuniculus) were 8.13, 7.51 and 6.41, respectively. The IC50 in assay [1] (setting [3]) is 120 µM.

On to `COc1ccc([C@@H]2Sc3ccccc3N(CCN(C)C)C(=O)[C@@H]2OC(C)=O)cc1` [diltiazem, reference compound], for which the pIC50 in the assay with arteria basilaris (Oryctolagus cuniculus) is 6.92; with arteria coronaria (Oryctolagus cuniculus), 6.77; in the assay on arteria saphena (Oryctolagus cuniculus), 5.54. Further, the IC50 in assay [1] (setting [3]) is 10 µM.

As to `COC(=O)C1=C(C)Nc2ccnc(OC)c2C1c1ccccc1` (racemic) [Example 2, Methyl (±)-1,4-dihydro-5-methoxy-2-methyl-4-phenyl-1,6-naphthyridine-3-carboxylate], the pIC50 in the assay on arteria basilaris (Oryctolagus cuniculus) is 6.60; with arteria coronaria (Oryctolagus cuniculus), 6.00; with arteria saphena (Oryctolagus cuniculus), 7.05.

Take `COC(=O)C1=C(C)Nc2ccnc(OC(C)C)c2C1c1c(F)cccc1Cl` (racemic) [Example 1g, methyl (±)-4-(2-chloro-6-fluorophenyl)-1,4-dihydro-5-isopropoxy-2-methyl-1,6-naphthyridine-3-carboxylate]: the pIC50 was 8.23 with arteria basilaris (Oryctolagus cuniculus) and 8.49 with arteria coronaria (Oryctolagus cuniculus).

Take `COC(=O)C1=C(C)Nc2ccnc(OC(C)C)c2C1c1ccccc1[N+](=O)[O-]` (racemic) [Example 1b, methyl (±)-1,4-dihydro-5-isopropoxy-2-methyl-4-(2-nitrophenyl)-1,6-naphthyridine-3-carboxylate]: the results for the pIC50 in the assay with arteria basilaris (Oryctolagus cuniculus), in the assay on arteria coronaria (Oryctolagus cuniculus) and in the assay on arteria saphena (Oryctolagus cuniculus) were 9.18, 9.12 and 8.47, respectively.

On to `COC(=O)C1=C(C)NC(C)=C(C(=O)OC)C1c1ccccc1[N+](=O)[O-]` [nifedipine, reference compound], for which the pIC50 was 8.57 in the assay on arteria basilaris (Oryctolagus cuniculus); 8.30 with arteria coronaria (Oryctolagus cuniculus); 7.23 in the assay with arteria saphena (Oryctolagus cuniculus); 6.00 in assay [2] (read-out: IC50 /100 (IC = inhibition concentration, IC100 corresponds to maximum action)). Further, in assay [2], the “Δ% = maximum decrease of the contractility” value is reported as -80%.

For `CCOC(=O)C1=C(C)Nc2ccnc(OC)c2C1c1ccccc1Cl` (racemic) [Example 2a, ethyl (±)-4-(2-chlorophenyl)-1,4-dihydro-5-methoxy-2-methyl-1,6-naphthyridine-3-carboxylate], the pIC50 was 8.22 in the assay with arteria basilaris (Oryctolagus cuniculus), 8.00 with arteria coronaria (Oryctolagus cuniculus) and 6.22 in the assay with arteria saphena (Oryctolagus cuniculus).

As for `CCCOc1nccc2c1C(c1ccccc1C(F)(F)F)C(C(=O)OC)=C(C)N2` (racemic) [Example 1h, methyl (±)-1,4-dihydro-2-methyl-5-propoxy-4-(2-trifluoromethylphenyl)-1,6-naphthyridine-3-carboxylate], the pIC50 in the assay on arteria basilaris (Oryctolagus cuniculus) was 5.52; in the assay on arteria coronaria (Oryctolagus cuniculus), 7.82; with arteria saphena (Oryctolagus cuniculus) it was 6.00.

For “methyl (±)-4-(2-bromoethyl)-1,4-dihydro-5-isopropoxy-2-methyl-1,6-naphthyridine-3-carboxylate [Example 1a]”, the pIC50 was 8.62 in the assay with arteria basilaris, 8.57 in the assay on arteria coronaria and 8.10 in the assay with arteria saphena. The “Δ% = maximum decrease of the contractility” value in assay [1] (at IC100, papillary muscle of guinea pig, 250/min, 10 msec, 10-20 V field stimulation) was -48%. Also, the IC50 in assay [1] (papillary muscle of guinea pig, 250/min, 10 msec, 10-20 V field stimulation) is 300 µM.

Regarding `COC(=O)C1=C(C)Nc2ccnc(OC(C)C)c2C1c1ccccc1F` (racemic) [Example 1, Methyl (±)-4-(2-fluorophenyl)-1,4-dihydro-5-isopropoxy-2-methyl-1,6-naphthyridine-3-carboxylate], the pIC50 was 8.30 in the assay with arteria basilaris (Oryctolagus cuniculus), 7.52 in the assay with arteria coronaria (Oryctolagus cuniculus) and 8.15 in the assay on arteria saphena (Oryctolagus cuniculus). For the same compound, the IC50 in assay [1] (setting [3]) was 300 µM.

Turning to `CCOC(=O)C1=C(C)Nc2ccnc(OC)c2C1c1cccc([N+](=O)[O-])c1` (racemic) [Example 2b, ethyl (±)-1,4-dihydro-5-methoxy-2-methyl-4-(3-nitrophenyl)-1,6-naphthyridine-3-carboxylate], the pIC50 with arteria basilaris (Oryctolagus cuniculus) was 8.74; with arteria coronaria (Oryctolagus cuniculus), 7.92; with arteria saphena (Oryctolagus cuniculus), 6.22.
